Publication PMC11173897, “Computational Docking as a Tool in Guiding the Drug Design of Rutaecarpine Derivatives as Potential SARS-CoV-2 Inhibitors” (Molecules, 2024)

Experiments:
cells = details: MTT assay, Figure S1
S-protein–ACE2 complex [1] = molecular target: T1, S-protein–ACE2 complex (Severe acute respiratory syndrome coronavirus 2, UniProt P0DTC2); assay: S-protein-based ELISA (spike–ACE2 binding assay kit); set-up: species or system SARS-CoV-2; details: for maximal inhibition, higher than that of RU: S-protein-based ELISA, compared with RU; for IC50: tested at 0.1, 1, 5, 10, 20 µM, n = 4, read-out: IC50, disrupting the S-protein–ACE2 complex
T1 construct: purchased ImmunoDiagnostics Ltd., Hong Kong, China
Text: An S-protein-based ELISA was utilized to determine the binding activities of RU-75 and RU-184 to the S-protein–ACE2 complex. A standard inhibitor, provided by the supplier (calibrated to NIBSC code 20/136), was employed as a positive control (Figure 6A). […] The maximal inhibition, triggered by RU-75 and RU-184, was at least 20% higher than that of RU.
(A) A standard inhibitor, provided by supplier (calibrated to NIBSC code 20/136), was used as a positive control. (B) Rutaecarpine, RU-75 and RU-184 were detected at concentrations of 0.1, 1, 5, 10, 20 µM. The IC50 values are shown.
Spike (S)-protein inhibition was analyzed with the SARS-CoV-2 spike–ACE2 binding assay kit (ImmunoDiagnostics Ltd., Hong Kong, China), according to the manufacturer’s instructions. The reaction was terminated by the addition of 2 M H2SO4, and the data were quantified using a microplate reader (FlexStation; Molecular Devices, San Jose, CA). The percentage of inhibition was calculated as follows:
Percentage of inhibition = (PAvg − SAvg)/PAvg × 100%, where PAvg and SAvg are the mean OD values of the positive control and test sample, respectively.

[2] = test system: TNF-α, IL-6 and IL-1β mRNA in RAW264.7 cells; format: cell-based; details: co-treated with LPS 0.1 µg/mL, 24 h, Figure S2
SARS-CoV-2 3CL protease [3] = molecular target: T2, SARS-CoV-2 3CL protease (Severe acute respiratory syndrome coronavirus 2, UniProt P0DTD1); assay: 3CL protease assay (SensoLyte fluorogenic kit); format: biochemical; details: n = 4
[4] = test system: TNF-α, IL-6 and IL-1β mRNA in RAW264.7 cells; format: cell-based
S-protein–ACE2 complex [5] = molecular target: T1, S-protein–ACE2 complex; details: cited from earlier work
[6] = test system: wild-type SARS-CoV-2 pseudovirus; details: cited from earlier work
SARS-CoV-2 3CL protease [7] = molecular target: T2, SARS-CoV-2 3CL protease; details: cited from earlier work
[8] = test system: TNF-α, IL-6 and IL-1β mRNA in RAW264.7 cells; details: previous investigation; cited from earlier work

Structure (SMILES)	cell toxicity (cell viability) (cells)	maximal inhibition, higher than that of RU (S-protein–ACE2 complex [1])	IC50 (S-protein–ACE2 complex [1]) [nM]	inflammatory suppression [2]	IC50 (SARS-CoV-2 3CL protease [3]) [nM]	production of inflammatory cytokines (TNF-α, IL-6 and IL-1β) [4]	formation of the S-protein–ACE2 complex (S-protein–ACE2 complex [5])	entry of SARS-CoV-2 into host cells [6]	3CL protease inhibition (SARS-CoV-2 3CL protease [7])	inflammatory response induced by SARS-CoV-2 [8]
O=C1c2ccc(Nc3ccccc3)cc2NC2=NCCc3c2n1c1ccccc31 [RU-184]	little impact on the cell viability	at least 20%	780	no significant inflammatory suppression	1030	significantly reduced	–	–	–	–
O=c1c2ccc(Nc3ccccc3)cc2nc2n1CCc1c-2[nH]c2ccccc12 [RU-75]	little impact on the cell viability	at least 20%	1030	no significant inflammatory suppression	1310	significantly reduced	–	–	–	–
O=c1c2ccccc2nc2n1CCc1c-2[nH]c2ccccc12 [RU, rutaecarpine]	little impact on the cell viability	–	1260	–	1600	–	inhibited the formation of the S-protein–ACE2 complex	prevented the entry of SARS-CoV-2 into host cells	inhibit the 3CL protease	attenuated the inflammatory response
